Experimental data: patent publication US7192956B2, “Methods of treating hormone-related conditions using cyclothiocarbamate derivatives” (Wyeth, priority 2002, dated 2007)

Legend:
[1] = target: T1, androgen receptor (AR) (Mus musculus, UniProt P19091); assay: AR agonistic activity, PRE-tk-luciferase reporter in L929 cells; format: cell-based; conditions: at the maximum concentration tested (i.e., 10 nM)
T1 construct: the L929 cells which express the AR but not the PR; endogenous in cells; host or cells: L929 cells
T1 sequence (P19091 1-899): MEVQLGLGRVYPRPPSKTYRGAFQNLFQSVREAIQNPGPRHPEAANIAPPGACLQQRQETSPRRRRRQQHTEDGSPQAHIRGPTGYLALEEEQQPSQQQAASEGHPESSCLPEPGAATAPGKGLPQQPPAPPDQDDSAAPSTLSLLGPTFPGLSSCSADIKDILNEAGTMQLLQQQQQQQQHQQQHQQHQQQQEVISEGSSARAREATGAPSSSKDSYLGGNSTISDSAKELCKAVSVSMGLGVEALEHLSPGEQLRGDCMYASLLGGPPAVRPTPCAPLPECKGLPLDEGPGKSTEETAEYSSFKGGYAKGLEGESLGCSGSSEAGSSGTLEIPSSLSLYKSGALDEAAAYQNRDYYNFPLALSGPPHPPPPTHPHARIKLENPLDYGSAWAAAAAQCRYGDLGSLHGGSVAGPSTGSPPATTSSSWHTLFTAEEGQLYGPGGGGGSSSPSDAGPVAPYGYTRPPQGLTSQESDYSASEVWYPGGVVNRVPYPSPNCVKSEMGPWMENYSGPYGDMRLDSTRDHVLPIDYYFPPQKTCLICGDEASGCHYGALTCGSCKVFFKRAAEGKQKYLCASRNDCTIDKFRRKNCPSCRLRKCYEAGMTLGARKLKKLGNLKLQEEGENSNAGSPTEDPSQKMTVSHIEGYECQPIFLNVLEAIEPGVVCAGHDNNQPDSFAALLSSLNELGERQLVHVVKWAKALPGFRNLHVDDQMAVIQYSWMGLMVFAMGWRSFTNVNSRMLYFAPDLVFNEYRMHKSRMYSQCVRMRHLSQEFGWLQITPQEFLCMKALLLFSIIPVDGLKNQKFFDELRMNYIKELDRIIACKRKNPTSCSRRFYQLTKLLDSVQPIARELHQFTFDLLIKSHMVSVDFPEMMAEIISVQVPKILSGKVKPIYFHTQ
Procedure: (§1) The androgen receptor (AR) agonistic and antagonistic activity of the compositions of the invention in the L929 cells which express the AR but not the PR was evaluated as described in Zhang et al., Steroids, 65(10–11): 637–643 (October–November 2000).
(§2) Cells were plated in 96-well plates at 25,000 cells/well in DMEM (Bio Whittaker) with 10% (v/v) fetal bovine serum (FBS). The next day, cells were infected with the adenovirus PRE-tk-luciferase reporter construct (2×10^9 pfu/ml particles) and kept in DMEM containing 10% charcoal stripped FBS for an additional 24 hours. […] To test the anti-androgenic activity, cells were co-treated with 3 nM DHT. Luciferase activity was measured 24 hours following the treatment.

[2] = target: T1, androgen receptor (AR); assay: Anti-androgenic (AR antagonistic) activity, PRE-tk-luciferase reporter in L929 cells co-treated with DHT; format: cell-based; conditions: co-treated with 3 nM DHT
Procedure: as §1, §2

Cn1c(C#N)ccc1-c1ccc2c(c1)C(C)(C)OC(=S)N2 [5-(4,4-dimethyl-2-thioxo-1,4-dihydro-2H-3,1-benzoxazin-6-yl)-1-methyl-1H-pyrrole-2-carbonitrile]
agonistic activity [1]: only marginal agonistic activity | IC50 ([2]; L929 cells expressing AR but not PR, PRE-tk-luciferase reporter, luciferase measured 24 hours after treatment): 109 nM | antagonistic activity ([2]; L929 cells, nine point dose response): significant antagonistic activity
